# US20250353855A1, “HETEROCYCLIC AND HETEROARYL COMPOUNDS FOR TREATING HUNTINGTON'S DISEASE” (PTC THERAPEUTICS, INC., priority 2022, published 2025)
# Tested on: Endogenous Huntingtin Protein
# Experiment: Endogenous Huntingtin Protein Assay (ELISA-based MSD electrochemiluminescence)
# Type: cell-based
# Settings: MSD plates coated with MW1 (expanded polyglutamine) or MAB2166 capture antibody; lysates
# Summary of the method: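 Electrochemiluminescence sandwich ELISA for endogenous huntingtin: capture with MW1 (expanded polyglutamine) or MAB2166 antibody at 1 μg/mL, samples incubated overnight at 4° C. Detection with rabbit monoclonal #5656S then goat anti-rabbit SULFO-TAG antibody (each 0.25 μg/mL, 1 h room temperature), read on MSD imager.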
row,Structure (SMILES),IC50 [nM]
1,"Cn1ncc2cc(O)c(-c3cc4c(nn3)N([C@H]3CC(C)(C)NC(C)(C)[C@H]3F)CC4)cc21 [Cpd 62, 6-{7-[(3S,4S)-3-fluoro-2,2,6,6-tetramethylpiperidin-4-yl]-6,7-dihydro-5H-pyrrolo[2,3-c]pyridazin-3-yl}-1-methyl-1H-indazol-5-ol]",< 100
2,"CC1(C)C[C@H](N2CCc3cc(-c4cc5ncccc5cc4O)nnc32)[C@H](F)C(C)(C)N1 [Cpd 80, 7-{7-[(3S,4S)-3-fluoro-2,2,6,6-tetramethylpiperidin-4-yl]-6,7-dihydro-5H-pyrrolo[2,3-c]pyridazin-3-yl}quinolin-6-ol]",< 100
3,"COc1cnc2cc(-c3cc4c(nn3)N([C@H]3CC(C)(C)NC(C)(C)[C@H]3F)CC4)c(O)cc2n1 [Cpd 84, 7-{7-[(3S,4S)-3-fluoro-2,2,6,6-tetramethylpiperidin-4-yl]-6,7-dihydro-5H-pyrrolo[2,3-c]pyridazin-3-yl}-3-methoxyquinoxalin-6-ol]",< 100

# Same assay, conditions: MSD plates coated with MW1 (expanded polyglutamine) or MAB2166 capture antibody; lysates; read-out: IC50
row,IC50 [nM],Structure (SMILES)
1,500 to 1000,"CO/N=C1/CCc2cc(-c3cc4c(nn3)N([C@H]3CCNC5(CC5)C3)CC4)c(O)cc21 [Cpd 60, (3Z)-6-{7-[(7S)-4-azaspiro[2.5]octan-7-yl]-6,7-dihydro-5H-pyrrolo[2,3-c]pyridazin-3-yl}-3-(methoxyimino)-2,3-dihydro-1H-inden-5-ol]"
2,< 100,"Cc1cc(=O)oc2cc(O)c(-c3cc4c(nn3)N([C@H]3CC(C)(C)NC(C)(C)[C@H]3F)CC4)cc12 [Cpd 65, 6-{7-[(3S,4S)-3-fluoro-2,2,6,6-tetramethylpiperidin-4-yl]-6,7-dihydro-5H-pyrrolo[2,3-c]pyridazin-3-yl}-7-hydroxy-4-methyl-2H-1-benzopyran-2-one]"
3,< 100,"Cc1cc(=O)oc2cc(O)c(-c3cc4c(nn3)N([C@H]3CCNC5(CC5)C3)CC4)cc12 [Cpd 66, 6-{7-[(7S)-4-azaspiro[2.5]octan-7-yl]-6,7-dihydro-5H-pyrrolo[2,3-c]pyridazin-3-yl}-7-hydroxy-4-methyl-2H-1-benzopyran-2-one]"
4,< 100,"CC1(C)C[C@H](N2CCc3cc(-c4cc5ccc(=O)oc5cc4O)nnc32)[C@H](F)C(C)(C)N1 [Cpd 67, 6-{7-[(3S,4S)-3-fluoro-2,2,6,6-tetramethylpiperidin-4-yl]-6,7-dihydro-5H-pyrrolo[2,3-c]pyridazin-3-yl}-7-hydroxy-2H-1-benzopyran-2-one]"
5,< 100,"Cc1cc(=O)c2cc(-c3cc4c(nn3)N([C@H]3CC(C)(C)NC(C)(C)[C@H]3F)CC4)c(O)cc2o1 [Cpd 68, 6-{7-[(3S,4S)-3-fluoro-2,2,6,6-tetramethylpiperidin-4-yl]-6,7-dihydro-5H-pyrrolo[2,3-c]pyridazin-3-yl}-7-hydroxy-2-methyl-4H-1-benzopyran-4-one]"
6,< 100,"CC1(C)C[C@H](N2CCc3cc(-c4cc5c(=O)ccoc5cc4O)nnc32)[C@H](F)C(C)(C)N1 [Cpd 69, 6-{7-[(3S,4S)-3-fluoro-2,2,6,6-tetramethylpiperidin-4-yl]-6,7-dihydro-5H-pyrrolo[2,3-c]pyridazin-3-yl}-7-hydroxy-4H-1-benzopyran-4-one]"
7,< 100,"CC1(C)C[C@H](N2CCc3cc(-c4cc5ccncc5cc4O)nnc32)[C@H](F)C(C)(C)N1 [Cpd 70, 6-{7-[(3S,4S)-3-fluoro-2,2,6,6-tetramethylpiperidin-4-yl]-6,7-dihydro-5H-pyrrolo[2,3-c]pyridazin-3-yl}isoquinolin-7-ol]"
8,< 100,"Cc1nc2cc(O)c(-c3cc4c(nn3)N(C3CC5(CC5)NC5(CC5)C3)CC4)cc2s1 (stereo not drawn) [Cpd 71, 6-[7-(4-azadispiro[2.1.25.33]decan-9-yl)-6,7-dihydro-5H-pyrrolo[2,3-c]pyridazin-3-yl]-2-methyl-1,3-benzothiazol-5-ol]"
9,< 100,"Cc1nc2cc(O)c(-c3cc4c(nn3)N(C3CC5(CC5)NC5(CC5)C3)CC4)cc2o1 (stereo not drawn) [Cpd 72, 6-[7-(4-azadispiro[2.1.25.33]decan-9-yl)-6,7-dihydro-5H-pyrrolo[2,3-c]pyridazin-3-yl]-2-methyl-1,3-benzoxazol-5-ol]"
10,< 100,"Cc1cc2cc(-c3cc4c(nn3)N([C@H]3CC(C)(C)NC(C)(C)[C@H]3F)CC4)c(O)cc2oc1=O [Cpd 73, 6-{7-[(3S,4S)-3-fluoro-2,2,6,6-tetramethylpiperidin-4-yl]-6,7-dihydro-5H-pyrrolo[2,3-c]pyridazin-3-yl}-7-hydroxy-3-methyl-2H-1-benzopyran-2-one]"
11,< 100,"Cc1cnc2cc(-c3cc4c(nn3)N([C@H]3CC(C)(C)NC(C)(C)[C@H]3F)CC4)c(O)cc2c1 [Cpd 75, 7-{7-[(3S,4S)-3-fluoro-2,2,6,6-tetramethylpiperidin-4-yl]-6,7-dihydro-5H-pyrrolo[2,3-c]pyridazin-3-yl}-3-methylquinolin-6-ol]"
12,< 100,"Cc1ccc2cc(-c3cc4c(nn3)N([C@H]3CC(C)(C)NC(C)(C)[C@H]3F)CC4)c(O)cc2n1 [Cpd 76, 6-{7-[(3S,4S)-3-fluoro-2,2,6,6-tetramethylpiperidin-4-yl]-6,7-dihydro-5H-pyrrolo[2,3-c]pyridazin-3-yl}-2-methylquinolin-7-ol]"
13,< 100,"Cc1ccc2cc(O)c(-c3cc4c(nn3)N([C@H]3CC(C)(C)NC(C)(C)[C@H]3F)CC4)cc2n1 [Cpd 77, 7-{7-[(3S,4S)-3-fluoro-2,2,6,6-tetramethylpiperidin-4-yl]-6,7-dihydro-5H-pyrrolo[2,3-c]pyridazin-3-yl}-2-methylquinolin-6-ol]"
14,< 100,"COc1cc(=O)oc2cc(O)c(-c3cc4c(nn3)N([C@H]3CC(C)(C)NC(C)(C)[C@H]3F)CC4)cc12 [Cpd 78, 6-{7-[(3S,4S)-3-fluoro-2,2,6,6-tetramethylpiperidin-4-yl]-6,7-dihydro-5H-pyrrolo[2,3-c]pyridazin-3-yl}-7-hydroxy-4-methoxy-2H-1-benzopyran-2-one]"
15,< 100,"Cc1cnc2cc(O)c(-c3cc4c(nn3)N([C@H]3CC(C)(C)NC(C)(C)[C@H]3F)CC4)cc2c1 [Cpd 81, 6-{7-[(3S,4S)-3-fluoro-2,2,6,6-tetramethylpiperidin-4-yl]-6,7-dihydro-5H-pyrrolo[2,3-c]pyridazin-3-yl}-3-methylquinolin-7-ol]"
16,< 100,"CC1(C)C[C@H](N2CCc3cc(-c4cc5occc(=O)c5cc4O)nnc32)[C@H](F)C(C)(C)N1 [Cpd 82, 7-{7-[(3S,4S)-3-fluoro-2,2,6,6-tetramethylpiperidin-4-yl]-6,7-dihydro-5H-pyrrolo[2,3-c]pyridazin-3-yl}-6-hydroxy-4H-1-benzopyran-4-one]"
17,< 100,"Cc1cc(=O)c2cc(O)c(-c3cc4c(nn3)N([C@H]3CC(C)(C)NC(C)(C)[C@H]3F)CC4)cc2o1 [Cpd 83, 7-{7-[(3S,4S)-3-fluoro-2,2,6,6-tetramethylpiperidin-4-yl]-6,7-dihydro-5H-pyrrolo[2,3-c]pyridazin-3-yl}-6-hydroxy-2-methyl-4H-1-benzopyran-4-one]"
18,< 100,"CC1(C)C[C@H](N2CCc3cc(-c4cc5nsnc5cc4O)nnc32)[C@H](F)C(C)(C)N1 [Cpd 85, 6-{7-[(3S,4S)-3-fluoro-2,2,6,6-tetramethylpiperidin-4-yl]-6,7-dihydro-5H-pyrrolo[2,3-c]pyridazin-3-yl}-2,1,3-benzothiadiazol-5-ol]"
19,< 100,"CC1(C)C[C@H](N2CCc3cc(-c4cc5oc(=O)[nH]c5cc4O)nnc32)[C@H](F)C(C)(C)N1 [Cpd 86, 6-{7-[(3S,4S)-3-fluoro-2,2,6,6-tetramethylpiperidin-4-yl]-6,7-dihydro-5H-pyrrolo[2,3-c]pyridazin-3-yl}-5-hydroxy-1,3-benzoxazol-2(3H)-one]"
20,< 100,"Cc1ncc2cc(O)c(-c3cc4c(nn3)N([C@H]3CC(C)(C)NC(C)(C)[C@H]3F)CC4)cc2n1 [Cpd 87, 7-{7-[(3S,4S)-3-fluoro-2,2,6,6-tetramethylpiperidin-4-yl]-6,7-dihydro-5H-pyrrolo[2,3-c]pyridazin-3-yl}-2-methylquinazolin-6-ol]"
21,< 100,"Cn1nc2cc(O)c(-c3cc4c(nn3)N([C@H]3CC(C)(C)NC(C)(C)[C@H]3F)CC4)cc2n1 [Cpd 88, 6-{7-[(3S,4S)-3-fluoro-2,2,6,6-tetramethylpiperidin-4-yl]-6,7-dihydro-5H-pyrrolo[2,3-c]pyridazin-3-yl}-2-methyl-2H-benzotriazol-5-ol]"
22,< 100,"Cn1cc2cc(O)c(-c3cc4c(nn3)N([C@H]3CC(C)(C)NC(C)(C)[C@H]3F)CC4)cc2n1 [Cpd 89, 6-{7-[(3S,4S)-3-fluoro-2,2,6,6-tetramethylpiperidin-4-yl]-6,7-dihydro-5H-pyrrolo[2,3-c]pyridazin-3-yl}-2-methyl-2H-indazol-5-ol]"
23,< 100,"CC1(C)C[C@H](N2CCc3cc(-c4cc5ncc(F)cc5cc4O)nnc32)[C@H](F)C(C)(C)N1 [Cpd 90, 3-fluoro-7-{7-[(3S,4S)-3-fluoro-2,2,6,6-tetramethylpiperidin-4-yl]-6,7-dihydro-5H-pyrrolo[2,3-c]pyridazin-3-yl}quinolin-6-ol]"
24,< 100,"Cn1nnc2cc(O)c(-c3cc4c(nn3)N([C@H]3CC(C)(C)NC(C)(C)[C@H]3F)CC4)cc21 [Cpd 92, 6-{7-[(3S,4S)-3-fluoro-2,2,6,6-tetramethylpiperidin-4-yl]-6,7-dihydro-5H-pyrrolo[2,3-c]pyridazin-3-yl}-1-methyl-1H-benzotriazol-5-ol]"
25,< 100,"CC1(C)C[C@H](N2CCc3cc(-c4cc5cc(F)cnc5cc4O)nnc32)[C@H](F)C(C)(C)N1 [Cpd 93, 3-fluoro-6-{7-[(3S,4S)-3-fluoro-2,2,6,6-tetramethylpiperidin-4-yl]-6,7-dihydro-5H-pyrrolo[2,3-c]pyridazin-3-yl}quinolin-7-ol]"
26,< 100,"CC1(C)C[C@H](n2ccc3cc(-c4cc5cc(F)cnc5cc4O)nnc32)[C@H](F)C(C)(C)N1 [Cpd 94, 3-fluoro-6-{7-[(3S,4S)-3-fluoro-2,2,6,6-tetramethylpiperidin-4-yl]-7H-pyrrolo[2,3-c]pyridazin-3-yl}quinolin-7-ol]"
27,< 100,"Cc1nc2cc(O)c(-c3cc4c(nn3)N([C@@H]3CC(C)(C)NC5(CC5)C3)CC4)cc2o1 [Cpd 95, 6-{7-[(7R)-5,5-dimethyl-4-azaspiro[2.5]octan-7-yl]-6,7-dihydro-5H-pyrrolo[2,3-c]pyridazin-3-yl}-2-methyl-1,3-benzoxazol-5-ol]"
